Test results from patent US12503440B2, “Nitroxoline derivative, preparation method therefor, and use thereof” (Jiangsu Yahong Meditech Co., Ltd., priority 2020, dated 2025).
≈ marks a conversion by molar mass, not a printed value.

Key:
Format in all cases: cell-based
[1] = tested on: Prostate cancer cell line LNcaP Clone FGC; test: Inhibitory activity on cancer cells, CellTiter-Glo viability, 72 h; settings: Homo sapiens
Source text: (§1) • HUVEC (purchased from Allcells Biological Technology (Shanghai) Co., Ltd.); UM-UC-3 (ATCC); LNCaP Clone FGC (ATCC); RM-1 (purchased from Nanjing Cobioer Biosciences Co., Ltd.) 2. Reagents • Endothelial cell complete medium (Allcells, H-004) • Medium RPMI1640 (ATCC, 30-2001) • Medium EMEM (ATCC, 30-2003) • Medium DMEM (Gibco, 12430-054) • Fetal bovine serum (Gibco, 10091148) • Penicillin-streptomycin double anti-body (Gibco, S110JV) • DPBS (Gibco, 14190-144) • CellTiter-Glo® kit (Promega, G7573) • Trypsin (0.25%), phenol red (Gibco, 25200-056) • DMSO (Sigma, D2650) 3. Instruments • Biological safety cabinet (Suzhou Antai Airtech Co., Ltd., BSC-1300A II) • Inverted microscope (Nikon, CKX53) • Automated cell counter (Life Technologies, countess II) • Multifunctional microplate reader (Biotek, H1FM) • Shaker (Hangzhou Allsheng Instruments Co., Ltd., OS-100) • GraphPad Prism 5.0 software • XLFIT 5.3 (Inforstack Shanghai Co., Ltd.) 4. Test Method
(§2) In this test method, the following experiments were carried out in a biological safety cabinet, and the specific steps are as follows: • (1) On the first day, the cells were seeded in a 96-well plate, and the previous medium was poured off. 5 mL of DPBS was added to wash the cells, and then removed by a pipette. Then, 1 mL of trypsin (0.25%) was added, and the plate was placed in a cell culture incubator at 37° C., 5% CO2 for digestion, and taken out after about 2 to 5 minutes. New corresponding medium was added, and pipetted to resuspend the cells evenly, and the cells were then counted with an automated cell counter.
(§3) The digestion was observed using an inverted microscope.
(§4) Regarding to HUVEC, the medium used was endothelial cell complete medium; regarding to UM-UC-3, the medium used was 89v % EMEM+10v % fetal bovine serum+1 v % penicillin-streptomycin double anti-body; regarding to LNcaP Clone FGC, the medium used was 89v % RPM11640+10v % fetal bovine serum+1 v % penicillin-streptomycin double anti-body; and regarding to RM-1, the medium used was 89v % DMEM+10v % fetal bovine serum+1v % penicillin-streptomycin double anti-body. • (2) HUVEC cells were seeded in columns 1 to 11 of a 96-well plate (Corning, Cat. No. 3610) at a density of 2000 cells per well in 100 μL of medium, and the medium free of cell was added to the wells of column 12. The other three types of cells were also seeded, wherein UM-UC-3 and RM-1 cells were seeded at a density of 3000 cells per well, and LNCap Clone FGC cells were seeded at a density of 5000 cells per well. Then, the plate was placed in an incubator at 37° C., 5% CO2 for 24 hours. • (3) On the second day, the compounds of the present invention and the reference drug nitroxoline (obtained according to the preparation method disclosed in the prior art) were diluted in gradient (2.5 folds, started at 100 μmol) to obtain 8 dose points (there were a total of 8 columns of wells; the first column of wells had the highest concentration, the concentration decreased in turn, and the last column of wells had the lowest concentration). 10 uL of the compound diluted in gradient was added to the 100 μL of cells in column 1 to column 10 with an 8-channel pipette. 10 μL of the corresponding medium containing 0.33v % DMSO was added to column 11 and column 12. The plate was incubated in an incubator at 37° C., 5% CO2 for 72 hours (note: column 11 was used as MAX well with cells and no compounds; and column 12 was used as MIN well with no cells and no compounds). • (4) After treating with the compounds of the present invention for 72 hours, the cell viability detection reagents in the above CellTiter-Glo® kit were added to the 96-well plate at 50 μL per well according to the instructions. […]

[2] = tested on: Mouse prostate cancer cell line RM-1; test: as above; settings: RM-1, 72 h
Source text: as §1, §2, §3, §4

[3] = tested on: Bladder cancer cell line UM-UC-3; test: as above; settings: Homo sapiens, UMUC3, UM-UC-3, 72 h
Source text: as §1, §2, §3, §4

Escherichia coli = test: Bacteriostatic activity, micro broth dilution MIC (CLSI); settings: 20 hours; for MIC50 / MIC90: clinical strains (carbapenem-resistant), CAMHB; for MIC50: read-out: Escherichia coli Clinical strain MIC50; for MIC90: read-out: Escherichia coli Clinical strain MIC90; for MIC: standard strain ATCC25922, CAMHB
Procedure: (§5) The purpose of this test is to determine the bacteriostatic activity of the compounds of the present invention against a representative panel of strains (Gram-negative bacteria: […] ATCC 25922, Acinetobacter baumannii ATCC 19606; Gram-positive bacteria: Staphylococcus aureus ATCC29213). Bacteriostatic activity was determined by minimum inhibitory concentration (MIC), MIC50, MIC90. This test was entrusted to Shanghai Junj Lab Co., Ltd. Except for the test drugs, all other test materials were provided by Shanghai Junj Lab Co., Ltd.
(§6) The tested bacteria were several strains of clinically isolated carbapenem-resistant Escherichia coli, several strains of carbapenem-resistant Acinetobacter baumannii, several strains of methicillin-resistant Staphylococcus aureus, and several strains of sensitive Staphylococcus aureus. Duplicate strains isolated from the same patient were eliminated. There were also three quality control strains Escherichia coli ATCC 25922, Acinetobacter baumannii ATCC 19606, and Staphylococcus aureus ATCC 29213. The activity test of each compound was carried out on one or more strains of each of the above test bacteria.
(§7) According to the recommendations of relevant documents of the American Clinical and Laboratory Standards Institute (CLSI), the micro broth dilution method was used to determine the MIC of the compounds of the present invention against clinically isolated strains. The culture solution free of drug was used as the test bacteria positive control, the culture solution free of bacterial solution was used as the drug negative control, and the culture solution free of drug solution and bacterial solution was used as the blank control. • 4.1 Formulation of antibacterial drug: All the compounds of the present invention were dissolved in DMSO. The drug concentration range was 128 mg/L-0.06 mg/L. Specific method: The compounds of the present invention were successively diluted by 1:1 with DMSO to obtain an intermediate series with a range of 25600 mg/L-12.5 mg/L. 30 μL of solution from each tube of the intermediate series of each compound was added to a 3 mL/tube series of single broth tube, and mixed well to obtain an intermediate series with a range of 256 mg/L to 0.125 mg/L. The diluted series solution was added to the drug susceptibility plate line by line, 50 μL of solution per well. All ranges became investigated ranges after being mixed with an equal volume of bacterial solution: 128-0.06 mg/L. • 4.2 Culture medium: The drug susceptibility test used cation adjusted Mueller-Hinton broth (CAMHB). • 4.3 Amount of inoculum: The test bacteria cultured overnight were adjusted to 0.5 McFarland turbidity by the direct colony suspension method, and diluted 100 folds, the final inoculum amount was 10^5 CFU/mL. • 4.4 Culture conditions: The test bacteria were cultured at 35±2° C. for 20 hours in air. 5. Interpretation and Judgment of Results
(§8) The drug susceptibility test results were interpretated by reference to CLSI 2019 edition M100 29th edition criteria.
(§9) The results of drug susceptibility test were statistically analyzed by WHONET version 5.6 software.
(§10) The culture solution free of bacterial solution was used as the drug negative control, and the culture solution free of drug solution and bacterial solution was used as the blank control, wherein no bacteria grew in both solutions.

Staphylococcus aureus = test: as above; settings: 20 hours; for MIC50 / MIC90: clinical strains (methicillin-resistant and sensitive), CAMHB; for MIC50: read-out: Staphylococcus aureus Clinical strain MIC50; for MIC90: read-out: Staphylococcus aureus Clinical strain MIC90; for MIC: standard strain ATCC29213, CAMHB
Procedure: as §5, §6, §7, §8, §9, §10

Acinetobacter baumannii = test: as above; settings: 20 hours; for MIC50 / MIC90: clinical strains (carbapenem-resistant), CAMHB; for MIC50: read-out: Acinetobacter baumannii Clinical strain MIC50; for MIC90: read-out: Acinetobacter baumannii Clinical strain MIC90; for MIC: standard strain ATCC19606, CAMHB
Procedure: as §5, §6, §7, §8, §9, §10

[4] = tested on: Endothelial cell line HUVEC; test: Inhibitory activity on cells, CellTiter-Glo viability, 72 h; settings: Homo sapiens
Source text: as §1, §2, §3, §4

Structure (SMILES) | IC50 [1] [µM] | IC50 [2] [µM] | IC50 [3] [µM] | MIC50 (Escherichia coli) [µg/mL] | MIC90 (Escherichia coli) [µg/mL] | MIC (Escherichia coli) [µg/mL] | MIC50 (Staphylococcus aureus) [µg/mL] | MIC90 (Staphylococcus aureus) [µg/mL] | MIC (Staphylococcus aureus) [µg/mL] | MIC50 (Acinetobacter baumannii) [µg/mL] | MIC90 (Acinetobacter baumannii) [µg/mL] | MIC (Acinetobacter baumannii) [µg/mL] | IC50 [4] [µM]
COc1ccnc2c(O)ccc([N+](=O)[O-])c12 [Example 16, 4-methoxy-5-nitroquinolin-8-ol] | 1.8 | 2.1 | 1.5 | 32 (≈ 145 µM) | 32 (≈ 145 µM) | 32 (≈ 145 µM) | 4 (≈ 18.2 µM) | 4 (≈ 18.2 µM) | 4 (≈ 18.2 µM) | 32 (≈ 145 µM) | 32 (≈ 145 µM) | 32 (≈ 145 µM) | 
O=[N+]([O-])c1ccc(O)c2nccc(-c3ccccc3)c12 [Example 9, 5-nitro-4-phenylquinolin-8-ol] | 1.7 | 1 | 0.5 | 128 (≈ 481 µM) | 128 (≈ 481 µM) |  | 4 (≈ 15 µM) | 8 (≈ 30 µM) | 4 (≈ 15 µM) | 128 (≈ 481 µM) | 128 (≈ 481 µM) |  | 1.3
O=[N+]([O-])c1ccc(O)c2ncccc12 [Nitroxoline, 5-nitro-8-hydroxyquinoline] | 5.1 | 4.3 | 9.2 |  |  |  |  |  |  |  |  |  | 4.5
O=[N+]([O-])c1ccc(O)c2nccc(C3CC3)c12 [Example 19, 4-cyclopropyl-5-nitroquinolin-8-ol] | 1.9 | 0.9 | 2.4 | 8 (≈ 34.7 µM) | 16 (≈ 69.5 µM) | 8 (≈ 34.7 µM) | 2 (≈ 8.69 µM) | 4 (≈ 17.4 µM) | 4 (≈ 17.4 µM) | 8 (≈ 34.7 µM) | 16 (≈ 69.5 µM) | 16 (≈ 69.5 µM) | 1.3
O=[N+]([O-])c1ccc(O)c2nccc(Cl)c12 [Example 2, 4-chloro-5-nitroquinolin-8-ol] | 4.9 | 3.1 | 2 | 8 (≈ 35.6 µM) | 8 (≈ 35.6 µM) | 8 (≈ 35.6 µM) | 4 (≈ 17.8 µM) | 4 (≈ 17.8 µM) |  | 4 (≈ 17.8 µM) | 8 (≈ 35.6 µM) |  | 3
CCOC(=O)N1CCN(c2ccnc3c(O)ccc([N+](=O)[O-])c23)CC1 [Example 22, ethyl 4-(8-hydroxy-5-nitroquinolin-4-yl)piperazine-1-carboxylate] | 2.7 | 2.7 | 4 |  |  |  |  |  |  |  |  |  | 3
CC1CCCCN1c1ccnc2c(O)ccc([N+](=O)[O-])c12 (stereo not drawn) [Example 13, 4-(2-methylpiperidin-1-yl)-5-nitroquinolin-8-ol] | 1.2 | 2 | 1.6 |  |  |  |  |  |  |  |  |  | 2.5
O=[N+]([O-])c1ccc(O)c2nccc(C3CCCC3)c12 [Example 24, 4-cyclopentyl-5-nitroquinolin-8-ol] | 0.8 | 1 | 1.7 | 32 (≈ 124 µM) | 64 (≈ 248 µM) | 64 (≈ 248 µM) | 4 (≈ 15.5 µM) | 4 (≈ 15.5 µM) | 4 (≈ 15.5 µM) | 32 (≈ 124 µM) | 64 (≈ 248 µM) | 32 (≈ 124 µM) | 1.4
